Assay: xn = mol fraction of the nth substance listed

CCCCC(CC)COP(=O)(O)OCC(CC)CCCC (stereo unspecified) + CCCCO
303.15 K, 101 kPa
Conditions	viscosity [mPa·s]
x1 = 0.0419	2.97
x1 = 0.0842	3.693
x1 = 0.1206	4.321
x1 = 0.2162	6.156
x1 = 0.3122	8.132
x1 = 0.4528	11.18
x1 = 0.5519	12.85
x1 = 0.6567	14.57
x1 = 0.761	16.12
x1 = 0.8628	17.52
x1 = 0.9345	18.4

C[N+](=O)[O-] + CCCCO
viscosity [mPa·s], 101 kPa
Conditions	298.15 K	303.15 K	308.15 K	313.15 K	318.15 K	323.15 K
x1 = 0.1	–	1.815	1.607	1.438	1.283	1.156
x1 = 0.1589	1.93	–	–	–	–	–
x1 = 0.2	–	1.448	1.305	1.172	1.067	0.968
x1 = 0.299	1.499	–	–	–	–	–
x1 = 0.2999	–	1.218	1.107	0.996	0.906	0.828
x1 = 0.4	–	1.052	0.955	0.868	0.8	0.73
x1 = 0.4222	1.172	–	–	–	–	–
x1 = 0.5016	–	0.918	0.834	0.762	0.7	0.646
x1 = 0.5319	0.9681	–	–	–	–	–
x1 = 0.6017	–	0.802	0.73	0.672	0.622	0.578
x1 = 0.6302	0.8288	–	–	–	–	–
x1 = 0.6991	–	0.706	0.654	0.605	0.565	0.527
x1 = 0.7188	0.7435	–	–	–	–	–
x1 = 0.7993	0.6894	–	–	–	–	–
x1 = 0.8059	–	0.624	0.583	0.549	0.518	0.488
x1 = 0.8718	0.6557	–	–	–	–	–
x1 = 0.903	–	0.586	0.553	0.524	0.499	0.474
x1 = 0.9387	0.6378	–	–	–	–	–

O=Cc1ccco1 + CCCC[P+](C)(CCCC)CCCC.COS(=O)(=O)[O-]
viscosity [mPa·s], 100 kPa
Conditions	293.15 K	298.15 K	303.15 K	308.15 K	313.15 K	318.15 K	323.15 K
x2 = 0.062	2.53	–	–	–	–	–	–
x2 = 0.1	8.96	3.49	3.13	2.99	2.64	2.46	–
x2 = 0.142	–	–	4.13	3.99	3.64	3.46	–
x2 = 0.191	41.29	–	–	5.55	5.56	4.32	4.01
x2 = 0.249	64.53	30.58	–	–	–	–	–
x2 = 0.317	–	46.54	24.83	–	8.79	–	6.01
x2 = 0.399	–	72.22	39.81	–	–	9.92	–
x2 = 0.499	–	–	–	33.52	–	–	–
x2 = 0.624	270.6	–	–	58.28	–	32.22	26.66
x2 = 0.732	396.3	265.6	–	133.5	–	81.46	73.46
x2 = 0.823	501.6	350.8	255.5	–	–	116.5	99.45
x2 = 0.863	555	392.6	287.1	–	–	–	–
x2 = 0.91	614.7	435.6	319.2	–	–	–	–
x2 = 0.951	664.4	475.8	351.2	265.8	–	158.5	–

Reference: the CheMixHub viscosity set
